Laboratory results reported in US9938324B2, “FRET-based reagents and methods for identifying anti-HIV compounds” (Cornell University, priority 2012, dated 2018).

How the values were obtained:
HIV-1 EnvNL4-3 = assay: smFRET imaging of dually labelled HIV-1 Env on surface-immobilized virions (TIRF); type: biochemical, HIV-1NL4-3; settings: for agonist/antagonist character by smFRET (activation of HIV-1 Env): 100 μM, FIG. 10c, d; for effect of inhibitor on smFRET state distribution of HIV-1 Env: tested at concentrations 10-100-fold above the Kd (100 μM), FIG. 10
Procedure: All HIV-1 virions were generated by transfection of pNL4-3-based plasmids in HEK293T cells. Virus was harvested 24 h post-transfection and concentrated by centrifugation. Dually tagged viruses were site-specifically labelled at each peptide insert simultaneously through incubation with appropriate fluorophore conjugates and labelling enzymes. The viruses were purified away from unbound dye by density-gradient ultracentrifugation. Viruses were immobilized on streptavidin-coated quartz microscope slides, and imaged with a lab-built prism-based TIRF microscope equipped with multiple laser. Donor and acceptor fluorescence were separated with a dichroic filter, and imaged on parallel EMCCD cameras. All analysis was carried out with custom-designed Matlab software.
The tagged Envs (V1-3-Q3/V4-2-A1 and V1-3-A1/V4-2-A1) were subcloned from pNL4-3 into a pNL4-3 construct lacking reverse transcriptase (pNL4-3 ΔRT). Virus for smFRET experiments was generated by co-transfecting HEK293T cells with tagged-Env-containing pNL4-3 ΔRT and a 40-fold excess of wild-type-Env containing pNL4-3 ΔRT. Virus was harvested 24 h post-transfection and concentrated by centrifugation over a 15% sucrose cushion.
All virus labelling reactions were carried out in buffer containing 50 mM HEPES pH7.5, 10 mM MgCl2, 10 mM CaCl2. Virus containing the V1-3-Q3 and V4-2-A1 peptide insertions was labelled by incubation with 0.5 μM AlexaFluor647-cadaverine (Invitrogen), 0.5 μM Cy3-coenzyme A (Cy3-CoA), 0.65 μM transglutaminase (Sigma) (Lin et al., J Am Chem Soc 128, no. 14 (2006): 4542-3), and 5 μM AcpS (Zhou et al., ACS Chem Biol 2, no. 5 (2007): 337-46) for 2 h at 37° C. Alternatively, virus containing the V1-3-A1 and V4-2-A1 peptide insertions was labelled by incubation with 0.5 μM Cy5-CoA, 0.5 μM Cy3-CoA, and 5 μM AcpS for 2 h at 37° C. […]
Fluorescently labelled virus, containing DSPE-PEG2,000-biotin in the viral membrane was immobilized on passivated streptavidin-coated quartz microscope slides and imaged on a lab-built prism-based TIRF microscope. […] Donor and acceptor fluorescence were collected through a high-NA objective, separated with a 650DCXR dichroic filter (Chroma), and imaged on two parallel EMCCD cameras (Photometrics). Movies of surface-immobilized viruses were recorded at 25 frames/s for 40 s at room temperature. […]
All processing and analysis of fluorescence and smFRET trajectories was carried out using custom-designed Matlab (Mathworks) software. Fluorescence trajectories were extracted from the recorded movies and used to calculate FRET efficiency according to FRET=ICy5/(ICy3+ICy5), where ICy5 and ICy3 are the intensities of Cy5 and Cy3 fluorescence, respectively. […]

HIV-1 Env = HIV-1 Env (Human immunodeficiency virus type 1 group M subtype B, UniProt P03375); settings: cited from earlier work
HIV-1 Env, sequence (P03375 33-856): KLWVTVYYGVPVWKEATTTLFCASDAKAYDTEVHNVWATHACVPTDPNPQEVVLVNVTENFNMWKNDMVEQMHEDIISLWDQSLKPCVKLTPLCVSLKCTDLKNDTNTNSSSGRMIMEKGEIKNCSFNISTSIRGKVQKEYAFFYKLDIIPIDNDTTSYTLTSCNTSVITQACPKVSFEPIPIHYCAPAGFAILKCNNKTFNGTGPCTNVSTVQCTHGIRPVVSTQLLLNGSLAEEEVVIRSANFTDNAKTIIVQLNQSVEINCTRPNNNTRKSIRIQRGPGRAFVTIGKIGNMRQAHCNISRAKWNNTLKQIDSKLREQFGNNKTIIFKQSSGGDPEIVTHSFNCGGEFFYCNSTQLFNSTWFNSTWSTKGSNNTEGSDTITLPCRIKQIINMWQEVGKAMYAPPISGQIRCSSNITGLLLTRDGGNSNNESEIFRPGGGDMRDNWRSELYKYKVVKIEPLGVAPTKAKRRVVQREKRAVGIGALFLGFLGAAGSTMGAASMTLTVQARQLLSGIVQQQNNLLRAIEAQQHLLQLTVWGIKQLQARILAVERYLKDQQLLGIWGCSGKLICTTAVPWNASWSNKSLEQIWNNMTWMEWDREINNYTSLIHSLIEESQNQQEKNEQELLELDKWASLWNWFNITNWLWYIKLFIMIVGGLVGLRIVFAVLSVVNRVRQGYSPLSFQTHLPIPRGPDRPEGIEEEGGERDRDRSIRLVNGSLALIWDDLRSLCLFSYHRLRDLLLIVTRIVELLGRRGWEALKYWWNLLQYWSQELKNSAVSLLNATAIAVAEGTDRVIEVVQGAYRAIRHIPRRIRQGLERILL

Row | SMILES | agonist/antagonist character by smFRET (activation of HIV-1 Env) (HIV-1 EnvNL4-3) | effect of inhibitor on smFRET state distribution of HIV-1 Env (HIV-1 EnvNL4-3) | inactivation of HIV-1 Env (HIV-1 Env)
1 | CC1(C)CC(NC(=O)C(=O)Nc2ccc(Cl)cc2)CC(C)(C)N1 [NBD-556] | clear agonists | induced an intermediate-FRET state | –
2 | CC1(C)CC(NC(=O)C(=O)Nc2ccc(Cl)c(F)c2)CC(C)(C)N1 [JRC-II-191] | clear agonists | induced an intermediate-FRET state | inactivate
